The source of these data is patent US9670211B2, “Aza-oxo-indoles for the treatment and prophylaxis of respiratory syncytial virus infection” (Hoffmann-La Roche Inc., priority 2013, dated 2017).

As a reminder, the EC50 is the concentration giving half of the maximal effect. The low end stands for a more potent agent, the high end for a less potent agent.

The subject of one assay is RSV infection.
Experiment: not given
The following applies: intramuscularly at 15 mg/kg once a month for the duration of RSV season, selected infants; cited from earlier work.
For the compound “palivizumab: humanized monoclonal antibody against RSV fusion (F) protein approved for prophylaxis in high-risk infants”, the “reduction of hospitalization rate caused by RSV infection” value is given as 45-55%.

In another assay the test system is RSV Long strain. The assay is described as follows: Viral Cytopathic Effect (CPE) Assay. Type of assay: cell-based. The note with it: human respiratory syncytial virus, 144 h; RSV Long strain (ATCC), cell viability after 6 days by Cell Counting kit-8. The protocol: Viral Cytopathic Effect (CPE) Assay
To measure anti-RSV activity of compounds, 96-well plates are seeded with 6×10^3 cells per well in Dulbecco's modified Eagle's medium (DMEM) containing 10% fetal bovine serum (FBS). Cells are infected the next day with sufficient RSV Long strain (ATCC) to produce an approximately 80-90% cytopathic effect after 6 days, in the presence of serial half-log diluted compound in a total volume of 200 μL per well. The viability of cells is assessed after 6 days using Cell Counting kit-8 (Dojindo Molecular Technologies). The absorbance at 450 nm and referenced at 630 nm is measured to determine 50% effective concentration (EC50).
A general note: Damage to the host cells serves as the signal in cytopathic effect assays.
Compound `O=C1CCC(n2c(CN3C(=O)C4(CC4)c4ccncc43)nc3cc(Cl)ccc32)CN1` (stereo not drawn) [Example 7-1, 1′-{[5-Chloro-1-(6-oxopiperidin-3-yl)-1H-benzimidazol-2-yl]methyl}spiro[cyclopropane-1,3′-pyrrolo[2,3-c]pyridin]-2′(1′H)-one] returned an EC50 of 2 nM. Compound `O=C1CC(n2c(CN3C(=O)C4(CC4)c4ccncc43)nc3cc(Cl)ccc32)CN1` (stereo not drawn) [Example 7-2, 1′-{[5-Chloro-1-(5-oxopyrrolidin-3-yl)-1H-benzimidazol-2-yl]methyl}spiro[cyclopropane-1,3′-pyrrolo[2,3-c]pyridin]-2′(1′H)-one] returned an EC50 of 9 nM. The compound `CN1CC(n2c(CN3C(=O)C4(CC4)c4ccncc43)nc3cc(Cl)ccc32)CC1=O` (stereo not drawn) [Example 8-1, 1′-{[5-Chloro-1-(1-methyl-5-oxopyrrolidin-3-yl)-1H-benzimidazol-2-yl]methyl}spiro[cyclopropane-1,3′-pyrrolo[2,3-c]pyridin]-2′(1′H)-one] displayed an EC50 of 6 nM. Turning to `CCN1CC(n2c(CN3C(=O)C4(CC4)c4ccncc43)nc3cc(Cl)ccc32)CC1=O` (stereo not drawn) [Example 8-2, 1′-{[5-Chloro-1-(1-ethyl-5-oxopyrrolidin-3-yl)-1H-benzimidazol-2-yl]methyl}spiro[cyclopropane-1,3′-pyrrolo[2,3-c]pyridin]-2′(1′H)-one], the EC50 was found to be 1.1 nM. `O=C1N(Cc2nc3cc(Cl)cc(F)c3n2[C@H]2CCS(=O)(=O)C2)c2cnccc2C12CC2` [Example 9-1, 1′-({5-Chloro-1-[(3S)-1,1-dioxidotetrahydrothiophen-3-yl]-7-fluoro-1H-benzimidazol-2-yl}methyl)spiro[cyclopropane-1,3′-pyrrolo[2,3-c]pyridin]-2′(1′H)-one]: the EC50 worked out at 13 nM. In turn, `O=C1N(Cc2nc3cc(Cl)cc(F)c3n2[C@@H]2CCS(=O)(=O)C2)c2cnccc2C12CC2` [Example 9-2, 1′-({5-Chloro-1-[(3R)-1,1-dioxidotetrahydrothiophen-3-yl]-7-fluoro-1H-benzimidazol-2-yl}methyl)spiro[cyclopropane-1,3′-pyrrolo[2,3-c]pyridin]-2′(1′H)-one] returned an EC50 of 0.7 nM. Turning to `O=C1N(Cc2nc3cc(Cl)ccc3n2C2CCNCC2)c2cnccc2C12CC2` [Example 10-1, 1′-{[5-Chloro-1-(piperidin-4-yl)-1H-benzimidazol-2-yl]methyl}spiro[cyclopropane-1,3′-pyrrolo[2,3-c]pyridin]-2′(1′H)-one], the EC50 is 78 nM. For the compound `O=C1N(Cc2nc3cc(Cl)ccc3n2C2CNC2)c2cnccc2C12CC2` [Example 10-2, 1′-{[1-(Azetidin-3-yl)-5-chloro-1H-benzimidazol-2-yl]methyl}spiro[cyclopropane-1,3′-pyrrolo[2,3-c]pyridin]-2′(1′H)-one], the EC50 was 138 nM. As for `CC(C)C(=O)N1CC[C@@H](n2c(CN3C(=O)C4(CC4)c4ccncc43)nc3cc(Cl)ccc32)C1` [Example 11, 1′-({5-Chloro-1-[(3R)-1-(2-methylpropanoyl)pyrrolidin-3-yl]-1H-benzimidazol-2-yl}methyl)spiro[cyclopropane-1,3′-pyrrolo[2,3-c]pyridin]-2′(1′H)-one], the midpoint of the response, the EC50, lay at 3 nM.

For `CS(=O)(=O)N1CC(n2c(CN3C(=O)C4(CC4)c4ccncc43)nc3cc(Cl)ccc32)C1` [Example 12, 1′-({5-Chloro-1-[1-(methylsulfonyl)azetidin-3-yl]-1H-benzimidazol-2-yl}methyl)spiro[cyclopropane-1,3′-pyrrolo[2,3-c]pyridin]-2′(1′H)-one], the response was half-maximal at 1.8 nM (EC50).

On to `O=C1N(Cc2nc3cc(Cl)ccc3n2[C@H]2C[C@@H](O)C2)c2cnccc2C12CC2` [Example 14-1, 1′-{[5-Chloro-1-(cis-3-hydroxycyclobutyl)-1H-benzimidazol-2-yl]methyl}spiro[cyclopropane-1,3′-pyrrolo[2,3-c]pyridin]-2′(1′H)-one], for which a half-maximal effect (EC50) was put at 7 nM. Compound `O=C1N(Cc2nc3cc(Cl)ccc3n2[C@H]2C[C@H](O)C2)c2cnccc2C12CC2` [Example 14-2, 1′-{[5-Chloro-1-(trans-3-hydroxycyclobutyl)-1H-benzimidazol-2-yl]methyl}spiro[cyclopropane-1,3′-pyrrolo[2,3-c]pyridin]-2′(1′H)-one] had an EC50 of 0.8 nM. In turn, `O=C1N(Cc2nc3cc(Cl)ccc3n2C2CNS(=O)(=O)C2)c2cnccc2C12CC2` (stereo not drawn) [Example 15, 1′-{[5-Chloro-1-(1,1-dioxido-1,2-thiazolidin-4-yl)-1H-benzimidazol-2-yl]methyl}spiro[cyclopropane-1,3′-pyrrolo[2,3-c]pyridin]-2′(1′H)-one] yielded an EC50 of 1.6 nM. Turning to `O=C1N(Cc2nc3cc(Cl)ccc3n2C2CNC3(COC3)C2)c2cnccc2C12CC2` (stereo not drawn) [Example 16, 1′-{[5-Chloro-1-(2-oxa-5-azaspiro[3.4]oct-7-yl)-1H-benzimidazol-2-yl]methyl}spiro[cyclopropane-1,3′-pyrrolo[2,3-c]pyridin]-2′(1′H)-one], the EC50 is 2.2 nM. For `O=C1N(Cc2cc3cc(Cl)cc(F)c3n2C2CCS(=O)(=O)C2)c2cnccc2C12CC2` (stereo not drawn) [Example 17, 1′-{[5-Chloro-1-(1,1-dioxidotetrahydrothiophen-3-yl)-7-fluoro-1H-indol-2-yl]methyl}spiro[cyclopropane-1,3′-pyrrolo[2,3-c]pyridin]-2′(1′H)-one], a half-maximal response (EC50) required 0.6 nM.

In turn, `O=C1N(Cc2cc3cc(Cl)ccc3n2C2CCS(=O)(=O)C2)c2cnccc2C12CC2` (stereo not drawn) [Example 18, 1′-{[5-Chloro-1-(1,1-dioxidotetrahydrothiophen-3-yl)-1H-indol-2-yl]methyl}spiro[cyclopropane-1,3′-pyrrolo[2,3-c]pyridin]-2′(1′H)-one] came in with a concentration giving a half-maximal response (EC50) of 1.9 nM.

`O=C1N(Cc2cc3cc(Cl)cnc3n2C2CCS(=O)(=O)C2)c2cnccc2C12CC2` (stereo not drawn) [Example 19, 1′-{[5-Chloro-1-(1,1-dioxidotetrahydrothiophen-3-yl)-1H-pyrrolo[2,3-b]pyridin-2-yl]methyl}spiro[cyclopropane-1,3′-pyrrolo[2,3-c]pyridin]-2′(1′H)-one] had an EC50 of 6 nM.
